One assay has as its system T. brucei cells. The assay can be described thus: Microscopic analysis of treated cells (DAPI). It is filed as cell-based, Trypanosoma brucei. Particulars: 10 µM. The method, then: For microscopic analysis, untreated or JC-229 treated cells were seeded, and fixed with 1% paraformaldehyde for 10 min at room temperature. Cells were then washed with 1x PBS and stained with DAPI (0.5 µg/ml) (Sigma). Images were captured using fluorescence microscopy (EVOS M5000, Thermo Fisher Scientific) at 40x magnification and edited with Adobe Photoshop.

In assay [1] the test system is TbRPA complex containing S105T mutation. It is filed as binding, T. brucei. Particulars: dT32.
Assay [2] deals with LmexRPA1 DBD-AB. Description: MST inhibition of ssDNA-binding activity, LmexRPA1 DBD-AB. Particulars: dT32, MST. The arrangement: species or system L. mexicana. The text has this: (§1) Samples were then loaded into MST capillaries.
(§2) We used one site binding to obtain a dissociation constant (Kd) and standard 4-parameter logistic curve (Sigmoidal curve) analysis to obtain the IC50 value of JC-229. We used GraphPad Prism software.

In another assay the target is T1, HsRPA1 DBD-AB (Homo sapiens, UniProt P27694).
T1 construct: were generated by PCR-amplifying the DBD-AB domain and cloning into a pET28a vector; made in house; host or cells: E. coli BL21
Description: EMSA inhibition of ssDNA binding, HsRPA1 DBD-AB. Particulars: highest concentration 80 µM.

Assay [3] deals with T2, TbRPA1 DBD-AB (Trypanosoma brucei brucei, UniProt Q384B5). Description: EMSA inhibition of ssDNA binding, TbRPA1 DBD-AB. Particulars: 0.625-80 µM, 5´IRDye800-dT32.
The target of the next assay is TbRPA complex (Trypanosoma brucei brucei, UniProt Q384B5). The assay can be described thus: MST inhibition of ssDNA-binding activity, TbRPA complex. Further details: species or system T. brucei.
Excerpt: as §1, §2

The subject of the next assay is HEK293. Description: AlamarBlue cell viability of HEK293 cells. Type of assay: cell-based, human. Particulars: for EC50: HEK293, 72 h. The method, then: (§3) To determine the inhibitory effect of JC-229 on human cells, HeLa and HEK293 cells were suspended in 180 μl D-MEM with 10% FBS and plated at a density of 2 × 10^4 cells/ml in triplicate. […] Percent viability was plotted using GraphPad Prism software. […] We estimated the EC50 values using the concentration of JC-229 that causes a 50% reduction of cell viability (inhibitor vs. normalized response, variable slope).
On the technique in general: The colour change of resazurin is a common sign of viable cells or microbes.

In assay [4] the target is T2, TbRPA1 DBD-AB. Description: MST inhibition of ssDNA-binding activity, TbRPA1 DBD-AB. Particulars: 4-PL.
Excerpt: as §1, §2

Assay [5] has as its target T3, HsDBD-F and ATRIP interaction (Homo sapiens, UniProt P27694).
T3 construct: We purified 6xHis-HsDBD-F (amino acids 1–181), synthesized ATRIP peptide; made in house; host or cells: E. coli BL21 (protein); solid-phase synthesis (peptide)
Description: MST inhibition of the HsDBD-F binding with ATRIP peptide. Particulars: 50 nM Cy5-labeled ATRIP peptide.
Excerpt: as §1, §2

The subject of the next assay is HeLa. Description: AlamarBlue cell viability of HeLa cells. Type of assay: cell-based, human. The method, then:
as §3

For assay [6], the system named is LmexRPA1 DBD-AB. Description: EMSA inhibition of ssDNA binding, LmexRPA1 DBD-AB. The arrangement: species or system L. mexicana. The procedure: Increasing concentrations of recombinant protein (from 0.05 to 100 nM) were incubated with 2 nM of 5´IRDye800-labeled oligo in binding buffer (20 mM Tris, pH 7.5, 10 mM NaCl, 10 mM MgCl2, 2 mM dithiothreitol (DTT), 10% glycerol, and 0.1 mg/ml BSA) for 15 min at room temperature. About 4 μl of 6x Orange dye (Sigma) was added to the 20 μl reaction, and from that, 8 μl was separated on a non-denaturing polyacrylamide gel in 1x Tris-Borate-EDTA (TBE, Invitrogen) buffer; 4% gel for RPA complex and 8% for DBD-AB, DBD-A, or DBD-B proteins. Gels were pre-run for 1 h at a constant 100 V. Protein–ssDNA complex and unbound ssDNA were separated by running the gel at a constant 80 V at 4 °C in the dark and then visualized using LI-COR Odyssey imaging system and quantified with ImageJ software.
Samples were separated on a non-denaturing polyacrylamide gel and analyzed as described above in ssDNA-binding assay.

The structures appear in SMILES notation. “And” between values parts separate entries of the source, which are not always exact repeats. Identical values can stand only once. “Also recorded” adds a separate entry of the source.

T2 sequence (Q384B5 entry or part of it): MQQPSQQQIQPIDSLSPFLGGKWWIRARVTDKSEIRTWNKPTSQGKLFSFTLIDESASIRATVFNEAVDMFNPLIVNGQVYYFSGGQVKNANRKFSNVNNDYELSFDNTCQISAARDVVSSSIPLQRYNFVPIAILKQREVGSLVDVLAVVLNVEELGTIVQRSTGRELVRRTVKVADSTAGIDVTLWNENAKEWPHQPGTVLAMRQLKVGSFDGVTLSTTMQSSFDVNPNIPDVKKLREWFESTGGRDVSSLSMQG
Sequence of TbRPA complex (Q38DK0 entry or part of it): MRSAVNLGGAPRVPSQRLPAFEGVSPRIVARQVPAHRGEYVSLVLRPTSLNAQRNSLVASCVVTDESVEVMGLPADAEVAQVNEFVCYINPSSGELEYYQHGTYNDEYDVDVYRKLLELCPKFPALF
Sequence of TbRPA complex (Q57ZN9 entry or part of it, further chain): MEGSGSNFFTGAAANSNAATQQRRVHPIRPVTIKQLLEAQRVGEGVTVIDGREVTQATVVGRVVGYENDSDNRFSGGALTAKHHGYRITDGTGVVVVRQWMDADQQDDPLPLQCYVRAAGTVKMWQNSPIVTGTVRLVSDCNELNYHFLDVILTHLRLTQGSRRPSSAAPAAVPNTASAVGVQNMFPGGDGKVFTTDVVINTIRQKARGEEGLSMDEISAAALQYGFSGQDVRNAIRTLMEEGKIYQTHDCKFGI
Sequence of TbRPA complex (Q384B5 entry or part of it): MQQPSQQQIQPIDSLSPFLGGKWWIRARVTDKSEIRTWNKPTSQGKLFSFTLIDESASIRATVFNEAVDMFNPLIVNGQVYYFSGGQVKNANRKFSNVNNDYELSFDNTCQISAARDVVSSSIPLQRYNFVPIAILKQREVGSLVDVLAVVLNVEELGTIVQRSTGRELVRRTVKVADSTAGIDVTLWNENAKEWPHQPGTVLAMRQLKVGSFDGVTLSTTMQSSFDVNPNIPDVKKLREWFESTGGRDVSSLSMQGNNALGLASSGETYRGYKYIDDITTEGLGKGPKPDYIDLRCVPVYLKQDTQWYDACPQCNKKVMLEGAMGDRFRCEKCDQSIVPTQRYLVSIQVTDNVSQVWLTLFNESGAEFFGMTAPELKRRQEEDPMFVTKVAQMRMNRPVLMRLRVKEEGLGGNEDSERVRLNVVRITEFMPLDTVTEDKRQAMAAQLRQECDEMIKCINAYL
T3 sequence (P27694 1-181): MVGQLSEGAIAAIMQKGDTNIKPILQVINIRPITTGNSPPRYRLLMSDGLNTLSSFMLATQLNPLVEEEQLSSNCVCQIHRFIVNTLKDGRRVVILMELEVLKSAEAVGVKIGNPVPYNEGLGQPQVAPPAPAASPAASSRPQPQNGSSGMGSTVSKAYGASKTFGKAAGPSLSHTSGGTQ
T1 sequence (P27694 181-427 limits assumed): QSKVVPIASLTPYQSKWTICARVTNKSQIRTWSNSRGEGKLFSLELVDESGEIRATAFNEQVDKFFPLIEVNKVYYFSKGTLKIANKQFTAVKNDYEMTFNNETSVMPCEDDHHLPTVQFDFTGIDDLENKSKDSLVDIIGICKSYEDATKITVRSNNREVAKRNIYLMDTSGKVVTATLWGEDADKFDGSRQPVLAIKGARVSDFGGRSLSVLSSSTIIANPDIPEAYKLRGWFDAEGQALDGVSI

The term IC50 denotes the point on the concentration scale where inhibition reaches its midpoint. Low readings indicate higher potency, high ones lower potency. Usually EC50 stands for the midpoint of the concentration-response curve. The low end stands for a more potent agent, the high end for a less potent agent. As for `Cc1ccc(C(=O)Nc2ccc(Cl)c(Cl)c2)cc1S(=O)(=O)Nc1ccc(Cl)c(Cl)c1` [JC-229, N-(3,4-dichlorophenyl)−3-(N-(3,4-dichlorophenyl)sulfamoyl)−4-methylbenzamide], the “Microscopic analysis of treated cells” value in the assay with T. brucei cells was “leads to cell death”. Further, the “Effect on ssDNA binding of TbRPA S105T mutant complex (EMSA)” value in [1] was “not affected”. The “IC50, inhibition of LmexRPA1 DBD-AB ssDNA binding” value at LmexRPA1 DBD-AB [2] is on record as “No inhibition; also recorded: did not inhibit”. Also, on HsRPA1 DBD-AB, the “Inhibition of ssDNA binding of HsDBD-AB (EMSA)” value is listed as “did not inhibit”. Moreover, at TbRPA1 DBD-AB [3], the “Inhibition of ssDNA binding of TbDBD-AB (EMSA)” value is “inhibited by JC-229 in a dose-dependent manner”. Moreover, the IC50 is 0.0339 µM and ~0.0339 µM on TbRPA complex (dT20, 25 nM complex, MST (Supplementary Fig. 11d)); 0.0245 µM at TbRPA complex (dT32, 25 nM complex, MST (Fig. 5d)); 0.0339 µM and ~0.0339 µM on TbRPA complex (dT32, 25 nM complex, MST (Supplementary Fig. 11d, 18g)); 2.8 µM at TbRPA1 DBD-AB [4] (dT12, 30 nM protein); 0.881 µM at TbRPA1 DBD-AB [4] (dT20, 30 nM protein); 0.228 µM on TbRPA1 DBD-AB [4] (dT32, 30 nM protein). The IC50 in [5] was ~60 µM and 60.8 µM. In addition, the “Inhibition of HEK293 at EC50 to T. brucei” value with HEK293 (6.5 µM) is listed as “barely inhibited”. Moreover, the EC50 in the assay on HEK293 (Homo sapiens, 0.5-50 μM, 72 h, AlamarBlue, inhibitor vs. normalized response, variable slope (Fig. 3f)) is 18 µM; in the assay with HEK293 (Homo sapiens, 72 h, Sigmoidal, 4-PL (Suppl. Table 1-B)), 10.3 µM; with HeLa (Homo sapiens, HeLa, 72 h, 0.5-50 μM, 72 h, AlamarBlue, inhibitor vs. normalized response, variable slope (Fig. 3f)), 32 µM; in the assay on HeLa (Homo sapiens, HeLa, 72 h, Sigmoidal, 4-PL (Suppl. Table 1-B)) it was 13.2 µM. Also, the inhibition at 50 µM in the assay with HEK293 (Homo sapiens, HEK293, 50 µM, 72 h, read-out: Inhibition of HEK293 at maximum concentration) is < 100%; in the assay on HeLa (Homo sapiens, HeLa, 50 µM, 72 h, read-out: Inhibition of HeLa at maximum concentration), < 100%. The “Inhibition of HeLa at EC50 to T. brucei” value with HeLa (6.5 µM) is reported as “barely inhibited”. The “Inhibition of LmexRPA1 DBD-AB ssDNA binding (EMSA)” value with LmexRPA1 DBD-AB [6] was “did not inhibit”.
